Laboratory results from ChEMBL document CHEMBL3885861, “Open TG-GATES”.

Species on record: Rattus norvegicus
Test: Open TG-GATES - Regimen: Single
Format: toxicity, organism-based, Sprague-Dawley
Set-up: regimen Single, gender Male, age 6 weeks
Conditions: in vivo, po, 0 mg/kg, route gavage, dose level Control; for APTT / Bas / Eos / Fbg / Hb / Ht / Lym / MCH / MCHC / MCV / Mono / Neu / PT / Plat / RBC / Ret / WBC: tissue Blood; for KIDNEY_L / KIDNEY_R / KIDNEY_TOTAL: tissue Kidney; for LIVER: tissue Liver; for A/G / ALP / ALT / AST / BUN / CRE / Ca / Cl / DBIL / GLC / IP / K / LDH / Na / PL / RALB / TBIL / TC / TG / TP / gamma-GTP: tissue Plasma

CC(=O)Oc1cc(C(C)C)c(OCCN(C)C)cc1C [MOXISYLYTE]
TERMINAL_BW (3 h): 216.6 g
APTT (3 h): 21.3 s
Bas (3 h): 0%
Eos (3 h): 1%
Fbg (3 h): 307.8 mg/dL
Hb (3 h): 13 g/dL
Ht (3 h): 37.8%
Lym (3 h): 76.6%
MCH (3 h): 21.2 pg
MCHC (3 h): 34.4%
MCV (3 h): 61.6 fL
Mono (3 h): 2.4%
Neu (3 h): 19.2%
PT (3 h): 16.1 s
Plat (3 h): 118.3 x10_4/uL
RBC (3 h): 614.4 x10_4/ul
Ret (3 h): 8.8%
WBC (3 h): 111.5 x10_2/uL
KIDNEY_L (3 h): 0.9 g
KIDNEY_R (3 h): 0.9 g
KIDNEY_TOTAL (3 h): 1.9 g
LIVER (3 h): 9.9 g
A/G (3 h): 1.3
ALP (3 h): 1431.6 IU/L
ALT (3 h): 41 IU/L
AST (3 h): 73.6 IU/L
BUN (3 h): 14.6 mg/dL
CRE (3 h): 0.2 mg/dL
Ca (3 h): 10.8 mg/dL
Cl (3 h): 106 meq/L
DBIL (3 h): 0.004 mg/dL
GLC (3 h): 186.8 mg/dL
IP (3 h): 7.7 mg/dL
K (3 h): 4.3 meq/L
LDH (3 h): 263.8 IU/L
Na (3 h): 141.6 meq/L
PL (3 h): 137.4 mg/dL
RALB (3 h): 3 g/dL
TBIL (3 h): 0.02 mg/dL
TC (3 h): 79.8 mg/dL
TG (3 h): 57 mg/dL
TP (3 h): 5.3 g/dL
gamma-GTP (3 h): 1 IU/L
TERMINAL_BW (6 h): 204.4 g
APTT (6 h): 20.5 s
Bas (6 h): 0%
Eos (6 h): 1%
Fbg (6 h): 338.6 mg/dL
Hb (6 h): 13.7 g/dL
Ht (6 h): 39.5%
Lym (6 h): 80.2%
MCH (6 h): 21.4 pg
MCHC (6 h): 34.6%
MCV (6 h): 61.9 fL
Mono (6 h): 1.8%
Neu (6 h): 16.6%
PT (6 h): 16.4 s
Plat (6 h): 129.2 x10_4/uL
RBC (6 h): 638.2 x10_4/ul
Ret (6 h): 8.1%
WBC (6 h): 99.5 x10_2/uL
KIDNEY_L (6 h): 0.9 g
KIDNEY_R (6 h): 1 g
KIDNEY_TOTAL (6 h): 1.9 g
LIVER (6 h): 8.8 g
A/G (6 h): 1.3
ALP (6 h): 1524.2 IU/L
ALT (6 h): 40.2 IU/L
AST (6 h): 76.4 IU/L
BUN (6 h): 10.8 mg/dL
CRE (6 h): 0.1 mg/dL
Ca (6 h): 10.6 mg/dL
Cl (6 h): 106.6 meq/L
DBIL (6 h): 0.024 mg/dL
GLC (6 h): 183.4 mg/dL
IP (6 h): 8.9 mg/dL
K (6 h): 4.4 meq/L
LDH (6 h): 273 IU/L
Na (6 h): 141.4 meq/L
PL (6 h): 125.4 mg/dL
RALB (6 h): 3.1 g/dL
TBIL (6 h): 0.016 mg/dL
TC (6 h): 71.4 mg/dL
TG (6 h): 47.8 mg/dL
TP (6 h): 5.4 g/dL
gamma-GTP (6 h): 1.2 IU/L
TERMINAL_BW (9 h): 211.6 g
APTT (9 h): 20.8 s
Bas (9 h): 0%
Eos (9 h): 1%
Fbg (9 h): 295.6 mg/dL
Hb (9 h): 13.2 g/dL
Ht (9 h): 38.3%
Lym (9 h): 82.2%
MCH (9 h): 21.6 pg
MCHC (9 h): 34.4%
MCV (9 h): 62.7 fL
Mono (9 h): 2%
Neu (9 h): 14.8%
PT (9 h): 16.1 s
Plat (9 h): 114.1 x10_4/uL
RBC (9 h): 611 x10_4/ul
Ret (9 h): 8.2%
WBC (9 h): 120.9 x10_2/uL
KIDNEY_L (9 h): 1 g
KIDNEY_R (9 h): 1 g
KIDNEY_TOTAL (9 h): 1.9 g
LIVER (9 h): 8.9 g
A/G (9 h): 1.3
ALP (9 h): 1372.2 IU/L
ALT (9 h): 36.8 IU/L
AST (9 h): 72 IU/L
BUN (9 h): 12.8 mg/dL
CRE (9 h): 0.1 mg/dL
Ca (9 h): 10.5 mg/dL
Cl (9 h): 106.6 meq/L
DBIL (9 h): 0.018 mg/dL
GLC (9 h): 184.8 mg/dL
IP (9 h): 9.6 mg/dL
K (9 h): 4.5 meq/L
LDH (9 h): 214 IU/L
Na (9 h): 142.2 meq/L
PL (9 h): 133.2 mg/dL
RALB (9 h): 3 g/dL
TBIL (9 h): 0.014 mg/dL
TC (9 h): 71.8 mg/dL
TG (9 h): 65.4 mg/dL
TP (9 h): 5.4 g/dL
gamma-GTP (9 h): 1 IU/L
TERMINAL_BW (24 h): 218.4 g
APTT (24 h): 20.3 s
Bas (24 h): 0%
Eos (24 h): 0.8%
Fbg (24 h): 285.6 mg/dL
Hb (24 h): 13.6 g/dL
Ht (24 h): 39.3%
Lym (24 h): 79.2%
MCH (24 h): 21.5 pg
MCHC (24 h): 34.5%
MCV (24 h): 62.3 fL
Mono (24 h): 2.2%
Neu (24 h): 17.4%
PT (24 h): 16.2 s
Plat (24 h): 118.6 x10_4/uL
RBC (24 h): 631.4 x10_4/ul
Ret (24 h): 7.8%
WBC (24 h): 102.9 x10_2/uL
KIDNEY_L (24 h): 1 g
KIDNEY_R (24 h): 1 g
KIDNEY_TOTAL (24 h): 1.9 g
LIVER (24 h): 10 g
A/G (24 h): 1.2
ALP (24 h): 1643.4 IU/L
ALT (24 h): 44.8 IU/L
AST (24 h): 78.2 IU/L
BUN (24 h): 18.4 mg/dL
CRE (24 h): 0.2 mg/dL
Ca (24 h): 10.9 mg/dL
Cl (24 h): 106.8 meq/L
DBIL (24 h): 0 mg/dL
GLC (24 h): 189 mg/dL
IP (24 h): 6.6 mg/dL
K (24 h): 4.3 meq/L
LDH (24 h): 251.4 IU/L
Na (24 h): 142 meq/L
PL (24 h): 151.4 mg/dL
RALB (24 h): 3.1 g/dL
TBIL (24 h): 0.006 mg/dL
TC (24 h): 79.8 mg/dL
TG (24 h): 89 mg/dL
TP (24 h): 5.7 g/dL
gamma-GTP (24 h): 1.2 IU/L
